Measured values from ChEMBL document CHEMBL3132769, “Fragment growing to retain or alter the selectivity of anchored kinase hinge-binding fragments” (Medchemcomm, 2014).

Columns and labels:
[1] = biological target: T1, Calcium/calmodulin-dependent protein kinase type IV (Homo sapiens) (UniProt Q16566); assay: Inhibition of human full length CAMK4 expressed in baculovirus assessed as substrate phosphorylation using fluorescence-labelled peptides as substrate at 95 uM after 90 mins by microfluidic peptide phosphorylation assay
T1 sequence (whole entry): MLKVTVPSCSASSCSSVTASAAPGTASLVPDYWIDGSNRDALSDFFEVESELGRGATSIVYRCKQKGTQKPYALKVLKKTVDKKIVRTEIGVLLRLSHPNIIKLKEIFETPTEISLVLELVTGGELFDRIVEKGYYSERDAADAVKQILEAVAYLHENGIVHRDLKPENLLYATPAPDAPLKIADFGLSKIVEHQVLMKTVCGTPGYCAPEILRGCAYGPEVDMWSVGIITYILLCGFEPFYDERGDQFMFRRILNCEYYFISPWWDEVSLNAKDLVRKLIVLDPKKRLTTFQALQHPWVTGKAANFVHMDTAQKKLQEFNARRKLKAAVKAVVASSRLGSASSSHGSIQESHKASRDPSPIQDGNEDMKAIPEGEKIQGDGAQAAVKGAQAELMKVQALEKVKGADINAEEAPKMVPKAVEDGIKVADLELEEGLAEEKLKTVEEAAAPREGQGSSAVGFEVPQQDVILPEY

[2] = biological target: Receptor-type tyrosine-protein kinase FLT3 (Homo sapiens) (UniProt P36888); assay: Inhibition of human FLT3 catalytic domain expressed in baculovirus assessed as substrate phosphorylation using fluorescence-labelled peptides as substrate at 0.2 uM after 90 mins by microfluidic peptide phosphorylation assay
Chain of Receptor-type tyrosine-protein kinase FLT3 (Homo sapiens) (P36888 whole entry, the tested form may be a part): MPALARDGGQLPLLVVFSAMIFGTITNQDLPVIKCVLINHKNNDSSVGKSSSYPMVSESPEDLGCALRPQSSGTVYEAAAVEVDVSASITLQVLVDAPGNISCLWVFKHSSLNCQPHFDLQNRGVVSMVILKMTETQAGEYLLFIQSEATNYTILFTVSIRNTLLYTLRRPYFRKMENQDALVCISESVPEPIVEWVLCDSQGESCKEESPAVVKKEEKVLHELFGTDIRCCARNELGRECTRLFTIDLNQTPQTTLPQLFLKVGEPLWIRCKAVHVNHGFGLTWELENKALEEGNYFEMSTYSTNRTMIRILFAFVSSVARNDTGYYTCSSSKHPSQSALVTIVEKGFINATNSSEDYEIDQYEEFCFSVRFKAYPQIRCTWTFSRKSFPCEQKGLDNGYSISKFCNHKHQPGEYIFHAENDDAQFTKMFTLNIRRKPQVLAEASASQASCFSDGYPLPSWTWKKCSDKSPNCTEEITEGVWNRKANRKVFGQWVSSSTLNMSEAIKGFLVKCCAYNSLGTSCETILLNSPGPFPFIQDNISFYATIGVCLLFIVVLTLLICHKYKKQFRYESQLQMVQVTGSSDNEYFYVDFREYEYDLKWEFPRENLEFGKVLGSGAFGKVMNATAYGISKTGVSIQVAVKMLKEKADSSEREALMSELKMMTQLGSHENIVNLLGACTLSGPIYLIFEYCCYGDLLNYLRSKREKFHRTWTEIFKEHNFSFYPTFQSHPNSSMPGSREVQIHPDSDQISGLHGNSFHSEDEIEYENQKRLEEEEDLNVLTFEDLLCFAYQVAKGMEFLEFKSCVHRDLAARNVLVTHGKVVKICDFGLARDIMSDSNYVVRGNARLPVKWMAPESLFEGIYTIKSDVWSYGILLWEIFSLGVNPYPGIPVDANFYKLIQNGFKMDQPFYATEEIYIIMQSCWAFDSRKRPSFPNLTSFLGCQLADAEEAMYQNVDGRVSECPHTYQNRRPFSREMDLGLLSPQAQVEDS

[3] = biological target: Protein kinase C eta type (Homo sapiens) (UniProt P24723); assay: Inhibition of human truncated PKC eta expressed in baculovirus assessed as substrate phosphorylation using fluorescence-labelled peptides as substrate at 8 uM after 90 mins by microfluidic peptide phosphorylation assay
Chain of Protein kinase C eta type (Homo sapiens) (P24723 whole entry, the tested form may be a part, canonical isoform): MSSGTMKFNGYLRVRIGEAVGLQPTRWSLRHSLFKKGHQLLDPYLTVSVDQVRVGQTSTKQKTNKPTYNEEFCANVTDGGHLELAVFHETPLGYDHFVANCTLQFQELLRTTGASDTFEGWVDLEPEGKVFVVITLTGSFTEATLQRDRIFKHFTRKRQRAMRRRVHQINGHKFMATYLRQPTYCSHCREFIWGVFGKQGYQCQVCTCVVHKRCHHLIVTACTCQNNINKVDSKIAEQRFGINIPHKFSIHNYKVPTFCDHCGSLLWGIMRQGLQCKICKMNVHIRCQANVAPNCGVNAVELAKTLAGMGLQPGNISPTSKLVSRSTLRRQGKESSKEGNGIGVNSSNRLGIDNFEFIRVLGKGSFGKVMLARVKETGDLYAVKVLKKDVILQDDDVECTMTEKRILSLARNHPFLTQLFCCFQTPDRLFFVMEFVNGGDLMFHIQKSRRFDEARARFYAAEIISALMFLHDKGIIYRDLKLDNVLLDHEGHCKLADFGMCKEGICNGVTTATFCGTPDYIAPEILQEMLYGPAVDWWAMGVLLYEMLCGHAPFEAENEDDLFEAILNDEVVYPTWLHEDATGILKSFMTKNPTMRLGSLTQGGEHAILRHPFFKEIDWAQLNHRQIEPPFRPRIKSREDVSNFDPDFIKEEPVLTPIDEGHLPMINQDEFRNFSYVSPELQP

Homo sapiens = species: Homo sapiens; assay: Inhibition of human full length PKA expressed in baculovirus assessed as substrate phosphorylation using fluorescence-labelled peptides as substrate at 2 uM after 90 mins by microfluidic peptide phosphorylation assay
[4] = biological target: Proto-oncogene tyrosine-protein kinase Src (Homo sapiens) (UniProt P12931); assay: Inhibition of human full length SRC expressed in baculovirus assessed as substrate phosphorylation using fluorescence-labelled peptides as substrate at 1000 uM after 90 mins by microfluidic peptide phosphorylation assay
Chain of Proto-oncogene tyrosine-protein kinase Src (Homo sapiens) (P12931 2-536 limits assumed): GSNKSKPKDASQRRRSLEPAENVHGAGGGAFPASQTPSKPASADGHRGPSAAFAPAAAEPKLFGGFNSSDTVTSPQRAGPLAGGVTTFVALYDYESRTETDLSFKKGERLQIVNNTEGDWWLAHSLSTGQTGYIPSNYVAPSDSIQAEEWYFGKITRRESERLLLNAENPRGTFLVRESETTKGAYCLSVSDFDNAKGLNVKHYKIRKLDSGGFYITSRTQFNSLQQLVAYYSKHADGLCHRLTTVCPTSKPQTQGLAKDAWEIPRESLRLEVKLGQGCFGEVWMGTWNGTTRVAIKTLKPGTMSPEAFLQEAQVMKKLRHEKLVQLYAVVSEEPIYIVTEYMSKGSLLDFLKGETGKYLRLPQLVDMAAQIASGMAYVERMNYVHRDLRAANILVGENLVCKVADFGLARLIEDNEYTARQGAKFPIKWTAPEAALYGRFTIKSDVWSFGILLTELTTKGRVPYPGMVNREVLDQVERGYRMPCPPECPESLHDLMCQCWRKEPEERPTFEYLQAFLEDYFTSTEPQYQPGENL

[5] = biological target: Calcium/calmodulin-dependent protein kinase type II subunit gamma (Homo sapiens) (UniProt Q13555); assay: Inhibition of human CAMK2 gamma catalytic domain expressed in baculovirus assessed as substrate phosphorylation using fluorescence-labelled peptides as substrate at 1000 uM after 90 mins by microfluidic peptide phosphorylation assay
Chain of Calcium/calmodulin-dependent protein kinase type II subunit gamma (Homo sapiens) (Q13555 whole entry, the tested form may be a part): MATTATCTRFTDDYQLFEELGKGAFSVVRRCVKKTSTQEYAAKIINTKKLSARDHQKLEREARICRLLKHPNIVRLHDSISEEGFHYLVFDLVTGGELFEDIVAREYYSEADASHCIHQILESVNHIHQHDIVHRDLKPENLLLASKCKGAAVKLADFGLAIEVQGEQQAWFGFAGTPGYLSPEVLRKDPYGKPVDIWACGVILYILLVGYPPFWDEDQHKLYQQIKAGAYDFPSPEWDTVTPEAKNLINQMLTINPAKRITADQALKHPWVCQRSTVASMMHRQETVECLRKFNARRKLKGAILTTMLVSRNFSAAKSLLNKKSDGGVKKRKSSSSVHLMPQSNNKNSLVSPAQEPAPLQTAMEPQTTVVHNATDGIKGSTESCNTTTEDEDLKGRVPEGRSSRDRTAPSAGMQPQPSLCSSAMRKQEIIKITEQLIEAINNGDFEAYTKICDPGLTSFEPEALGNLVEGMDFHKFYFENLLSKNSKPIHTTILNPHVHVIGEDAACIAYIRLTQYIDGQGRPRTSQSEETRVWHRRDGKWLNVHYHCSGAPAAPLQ

[6] = biological target: Vascular endothelial growth factor receptor 2 (Homo sapiens) (UniProt P35968); assay: Inhibition of human KDR cytoplasmic domain expressed in baculovirus assessed as substrate phosphorylation using fluorescence-labelled peptides as substrate at 0.06 uM after 90 mins by microfluidic peptide phosphorylation assay
[7] = biological target: Serine/threonine-protein kinase MARK2 (Homo sapiens) (UniProt Q7KZI7); assay: Inhibition of human full length MARK2 expressed in baculovirus assessed as substrate phosphorylation using fluorescence-labelled peptides as substrate at 0.06 uM after 90 mins by microfluidic peptide phosphorylation assay
Chain of Serine/threonine-protein kinase MARK2 (Homo sapiens) (Q7KZI7 whole entry, the tested form may be a part): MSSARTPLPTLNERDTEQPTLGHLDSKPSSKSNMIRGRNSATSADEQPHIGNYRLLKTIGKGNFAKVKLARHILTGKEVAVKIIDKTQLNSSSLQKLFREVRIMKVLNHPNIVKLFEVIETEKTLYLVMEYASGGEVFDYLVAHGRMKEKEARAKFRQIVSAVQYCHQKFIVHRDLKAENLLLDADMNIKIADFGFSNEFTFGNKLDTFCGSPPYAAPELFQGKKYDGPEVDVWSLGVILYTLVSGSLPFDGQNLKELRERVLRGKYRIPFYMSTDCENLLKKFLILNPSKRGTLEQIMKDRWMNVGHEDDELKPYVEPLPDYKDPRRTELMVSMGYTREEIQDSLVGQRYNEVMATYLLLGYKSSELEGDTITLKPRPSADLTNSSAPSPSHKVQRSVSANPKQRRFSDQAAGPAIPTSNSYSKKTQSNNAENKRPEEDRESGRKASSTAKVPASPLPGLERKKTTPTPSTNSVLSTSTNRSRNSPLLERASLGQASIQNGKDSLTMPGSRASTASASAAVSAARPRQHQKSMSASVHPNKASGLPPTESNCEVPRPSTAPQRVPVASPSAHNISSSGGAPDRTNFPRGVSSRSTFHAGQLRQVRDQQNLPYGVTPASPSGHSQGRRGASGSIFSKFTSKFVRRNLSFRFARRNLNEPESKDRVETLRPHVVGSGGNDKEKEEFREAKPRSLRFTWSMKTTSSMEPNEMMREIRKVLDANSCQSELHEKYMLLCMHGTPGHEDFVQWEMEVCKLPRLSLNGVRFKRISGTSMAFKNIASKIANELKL

[8] = biological target: Protein kinase C eta type (Homo sapiens) (UniProt P24723); assay: Inhibition of human truncated PKC eta expressed in baculovirus assessed as substrate phosphorylation using fluorescence-labelled peptides as substrate at 0.06 uM after 90 mins by microfluidic peptide phosphorylation assay
[9] = biological target: Casein kinase I isoform delta (Homo sapiens) (UniProt P48730); assay: Inhibition of human CK1D catalytic domain expressed in Escherichia coli cell assessed as substrate phosphorylation using fluorescence-labelled peptides as substrate at 0.1 uM after 90 mins by microfluidic peptide phosphorylation assay
Chain of Casein kinase I isoform delta (Homo sapiens) (P48730 whole entry, looked up, the tested form may be a part, canonical isoform): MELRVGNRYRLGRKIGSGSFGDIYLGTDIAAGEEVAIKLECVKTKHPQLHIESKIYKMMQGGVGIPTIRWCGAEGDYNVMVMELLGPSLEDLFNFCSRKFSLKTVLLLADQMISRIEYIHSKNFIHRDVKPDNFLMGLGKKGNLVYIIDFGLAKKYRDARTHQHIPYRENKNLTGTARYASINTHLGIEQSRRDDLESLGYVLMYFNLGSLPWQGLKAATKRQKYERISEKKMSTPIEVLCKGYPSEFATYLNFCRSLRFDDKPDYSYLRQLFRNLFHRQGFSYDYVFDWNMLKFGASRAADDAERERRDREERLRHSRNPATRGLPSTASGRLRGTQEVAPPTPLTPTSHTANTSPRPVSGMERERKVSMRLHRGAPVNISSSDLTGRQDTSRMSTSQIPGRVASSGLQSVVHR

[10] = biological target: Ribosomal protein S6 kinase alpha-2 (Homo sapiens) (UniProt Q15349); assay: Inhibition of human full length RSK3 expressed in baculovirus assessed as substrate phosphorylation using fluorescence-labelled peptides as substrate at 420 uM after 90 mins by microfluidic peptide phosphorylation assay
[11] = biological target: T2, cGMP-dependent protein kinase 1 (Homo sapiens) (UniProt Q13976); assay: Inhibition of human full length PKG-1beta expressed in baculovirus assessed as substrate phosphorylation using fluorescence-labelled peptides as substrate at 420 uM after 90 mins by microfluidic peptide phosphorylation assay
T2 sequence (whole entry): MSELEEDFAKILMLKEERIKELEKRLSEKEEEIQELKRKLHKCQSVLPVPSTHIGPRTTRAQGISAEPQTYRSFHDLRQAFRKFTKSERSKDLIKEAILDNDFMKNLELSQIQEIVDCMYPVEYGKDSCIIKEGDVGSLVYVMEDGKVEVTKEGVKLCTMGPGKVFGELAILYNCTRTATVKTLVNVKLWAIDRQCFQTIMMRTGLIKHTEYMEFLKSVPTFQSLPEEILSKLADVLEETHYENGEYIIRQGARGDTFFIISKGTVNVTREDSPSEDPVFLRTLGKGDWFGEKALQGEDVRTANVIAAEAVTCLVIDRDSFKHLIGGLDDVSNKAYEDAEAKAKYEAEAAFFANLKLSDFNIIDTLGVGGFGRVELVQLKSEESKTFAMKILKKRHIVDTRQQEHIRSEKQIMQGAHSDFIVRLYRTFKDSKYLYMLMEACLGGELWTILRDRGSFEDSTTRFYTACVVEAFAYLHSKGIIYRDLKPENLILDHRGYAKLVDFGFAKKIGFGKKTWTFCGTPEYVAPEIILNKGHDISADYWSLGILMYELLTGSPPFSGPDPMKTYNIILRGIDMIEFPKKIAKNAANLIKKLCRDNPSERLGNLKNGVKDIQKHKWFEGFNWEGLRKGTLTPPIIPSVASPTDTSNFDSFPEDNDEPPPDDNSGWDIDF

[12] = biological target: Ribosomal protein S6 kinase alpha-5 (Homo sapiens) (UniProt O75582); assay: Inhibition of human full length MSK1 expressed in baculovirus assessed as substrate phosphorylation using fluorescence-labelled peptides as substrate at 9 uM after 90 mins by microfluidic peptide phosphorylation assay
Chain of Ribosomal protein S6 kinase alpha-5 (Homo sapiens) (O75582 whole entry, looked up): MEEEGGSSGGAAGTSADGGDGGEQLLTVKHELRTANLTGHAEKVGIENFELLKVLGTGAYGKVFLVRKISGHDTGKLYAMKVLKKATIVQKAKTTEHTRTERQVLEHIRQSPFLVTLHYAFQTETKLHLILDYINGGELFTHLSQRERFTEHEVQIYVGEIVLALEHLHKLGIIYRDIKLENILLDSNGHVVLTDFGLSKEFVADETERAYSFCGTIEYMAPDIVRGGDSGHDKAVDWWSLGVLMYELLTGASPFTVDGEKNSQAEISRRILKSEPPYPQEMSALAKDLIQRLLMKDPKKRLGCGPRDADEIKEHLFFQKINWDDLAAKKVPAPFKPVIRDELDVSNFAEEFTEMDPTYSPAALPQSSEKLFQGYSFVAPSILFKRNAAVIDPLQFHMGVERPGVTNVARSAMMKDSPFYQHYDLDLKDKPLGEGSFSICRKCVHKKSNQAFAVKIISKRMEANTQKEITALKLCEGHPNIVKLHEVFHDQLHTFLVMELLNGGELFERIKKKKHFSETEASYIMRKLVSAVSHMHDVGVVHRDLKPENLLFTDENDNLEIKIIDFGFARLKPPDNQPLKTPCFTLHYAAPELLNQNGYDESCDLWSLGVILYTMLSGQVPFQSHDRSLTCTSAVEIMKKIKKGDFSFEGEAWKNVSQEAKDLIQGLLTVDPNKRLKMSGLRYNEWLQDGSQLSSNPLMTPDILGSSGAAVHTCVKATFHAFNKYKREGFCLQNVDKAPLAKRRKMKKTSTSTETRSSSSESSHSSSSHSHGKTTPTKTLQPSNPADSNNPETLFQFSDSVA

[13] = biological target: T3, Aurora kinase A (Homo sapiens) (UniProt O14965); assay: Inhibition of human full length AurA expressed in baculovirus assessed as substrate phosphorylation using fluorescence-labelled peptides as substrate at 70 uM after 90 mins by microfluidic peptide phosphorylation assay
T3 sequence (whole entry): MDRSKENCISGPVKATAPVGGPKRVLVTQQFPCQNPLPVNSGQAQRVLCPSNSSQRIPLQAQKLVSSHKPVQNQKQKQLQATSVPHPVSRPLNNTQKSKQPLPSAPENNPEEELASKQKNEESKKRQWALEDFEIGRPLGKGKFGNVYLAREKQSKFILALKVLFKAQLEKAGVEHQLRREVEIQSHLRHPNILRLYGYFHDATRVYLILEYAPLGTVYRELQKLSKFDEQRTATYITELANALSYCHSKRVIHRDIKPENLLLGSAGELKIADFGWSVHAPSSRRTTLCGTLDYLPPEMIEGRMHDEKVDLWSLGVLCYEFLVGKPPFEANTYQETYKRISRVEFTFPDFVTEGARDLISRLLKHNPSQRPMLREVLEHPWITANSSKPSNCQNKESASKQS

In the case of `NCCc1ccc(-c2ncnc3[nH]cnc23)cc1`, the inhibition [1] is reported as 85%.

`Clc1ccc(C2(c3ccc(-c4ncnc5[nH]cnc45)cc3)CCNCC2)cc1` gave an inhibition [2] of 7.5%.

For `NCC1CCN(c2ncnc3[nH]ccc23)CC1`, the inhibition [3] was 82%.

`NC1CCN(c2ncnc3[nH]ccc23)CC1` gave an inhibition (Homo sapiens) of 21%.

Compound `c1cnc2[nH]ccc2c1` has an inhibition [4] of 28.5% and an inhibition [5] of 24.5%.

For `NC1(Cc2ccc(Cl)cc2)CCN(c2ncnc3[nH]ccc23)CC1`, the inhibition [6] was 0%, the inhibition [7] was 0% and the inhibition [8] was 51%.

In the case of `C[C@H](CN(C)C)Oc1nc(Nc2cc3cccc(Cl)c3cn2)cnc1C#N`, the inhibition [9] is reported as 9.5%.

For `c1nc(N2CCOCC2)c2nc[nH]c2n1`, the inhibition [10] was 98% and the inhibition [11] was 95.5%.

`NCC1CN(c2ncnc3[nH]c4cnccc4c23)CCO1` (centres undefined) showed an inhibition [12] of 60%.

In the case of `CNCc1ccc(-c2ncnc3[nH]cnc23)cc1`, the inhibition [13] is reported as 68%.
